# Entries after “also recorded” stand apart in the source; their conditions may differ.
# Key:
# [1] = tested on: HT1080, PANC-1, Capan-1 and MIA PaCa-2; test: Cell viability (crystal violet), BIA versus mTOR inhibitors; type: cell-based; settings: 10 μM
# BI-1 (TMBIM6) = test: TMBIM6-GCaMP3 fluorescence, calcium released through BI-1; type: cell-based; settings: HT1080 cells expressing TMBIM6-GCaMP3, BIA 10 μM, over time
# [2] = tested on: tumors derived from HT1080 cells; test: Xenograft in nude mice; type: in vivo; settings: 1 mg/kg BIA, 5 days a week, 25 days
# Experimental: Mice purchased 20-25 g of BALBc/Nude and conducted experiments after 1 week of preliminary breeding to adapt to the laboratory environment. This experiment was approved by the Animal Experiment Ethics Committee of Chonbuk National University (CBNU 201 5-064, CBNU 2016-56) and was carried out according to standard work instructions, and the conditions in the breeding room were kept constant temperature and relative humidity, a 12-hour contrast cycle, and water and feed were freely consumed. Experimental animals are transplanted subcutaneously with 5×10^6 cells per mouse using HT1080 cell line and MDA-MB-231 cell line, and after 7-10 days, mice forming tumor sizes of 100 mm^3 are randomly divided into control and experimental groups. […] The tumor size was measured with a caliper and calculated using the following formula: […]
# In culture, exponentially growing BI-1 (TMBIM6) knockout and WT HT1080 cells were treated with trypsin and quantified through trypan blue staining differentiation, and 3-5×10^6 cells were resuspended in 0.1 ml PBS. […]
# After 25-28 days, the mice were euthanized, solid tumors were incised, and tumor volumes were recorded. Tumor size was measured with a caliper. The tumor volume (mm^3) was calculated by the formula [(shortest diameter)2×longest diameter]/2. […]
structure (smiles),measurement,setting,value
"Nc1ccccc1C(=O)/C=C/c1cccc([N+](=O)[O-])c1 [BIA, 2E-1-2-Aminophenyl-3-3-nitrophenyl-2-propen-1-one]",cell viability compared to OSI-027 and Voxtalisib and other mTOR inhibitors,[1],significantly reduced
same,BI-1-GCaMP3 fluorescence intensity,BI-1 (TMBIM6),decreasing pattern; also recorded: decreased over time
same,tumor growth,[2],significantly impaired
